Measurements published in patent publication US9028845B2, “Chimeric immunomodulatory compounds and methods of using the same-IV” (Dynavax Technologies Corporation, priority 2001, dated 2015).
Marks after values point to notes of the source that are not given here.

Legend:
[1] = Water solubility of spacer precursor (dialcohol form); type: physicochemical; conditions: tested as dialcohol precursor of the dodecyl spacer
Excerpt: Thus, the definition of spacers excludes microcarriers or nanocarriers. […] The form of the spacer moiety used for testing its water solubility is generally its most closely related unactivated and unprotected spacer precursor molecule. For example, C-19 contains a spacer moiety including a dodecyl group with phosphorothioate diester linkages at the C-1 and C-12 positions, thereby connecting the spacer moiety to the nucleic acid moieties. […] These higher water solubility spacers include, without limitation, propane 1,3 diol; glycerol; butane-1,4-diol; pentane-1,5-diol; hexane-1,6-diol; triethylene glycol, tetraethylene glycol and HEG.

human PBMCs = assay: Human PBMC cytokine response assay (IFN-γ and IFN-α in cell-free medium by ELISA), with or without cPLGA; type: cell-based;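 as to IFN-α (pg/ml) mean: 20 µg/mL compound for 24 hours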;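 as to IFN-γ (pg/ml) mean: 20 µg/mL compound for 24 hours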
PBMCs = assay: Human PBMC proliferation assay (3H-thymidine incorporation); type: cell-based; conditions: Experiment A; for mean cpm: 2 μg/ml
mouse lung = assay: Induction of immune-associated genes in the mouse lung after intranasal treatment (quantitative PCR); type: in vivo, BALB/c mice; conditions: 20 ug intranasal, 6 hrs
Protocol: The genes evaluated included genes encoding cytokines, chemokines, cell surface molecules, transcription factors, metalloproteases, and other molecules. The study was performed at Northview Pacific Laboratories (Hercules, Calif.) with 6-8 week old female BALB/c mice from Jackson Labs (Bar Harbor, Me.). […] Therefore, at 6 hrs the lungs were harvested and snap-frozen in liquid nitrogen and stored at −80° C. for later use. Total RNA was isolated using RNeasy mini kits (Qiagen Inc., Valencia, Calif.). The RNA samples were DNAse-treated (Roche Diagnostics, Mannheim, Germany) and converted into cDNA using Superscript II Rnase H-Reverse Transcriptase (Invitrogen, Rockville Md.) as described in Scheerens et al., 2001, Eur. J. of Immunology 31:1465-74. The cDNA samples were pooled per group and in each pooled sample the expression of mRNA of 75 genes was measured using real-time quantitative PCR (ABI Prism 5700, Perkin Elmer Applied Biosystems) and syber green (Qiagen Inc.). In addition to the genes of interest, in each sample the mRNA expression of a housekeeping gene was measured (HPRT or ubiquitin). In order to correct for the amount of RNA in each sample, all data were calculated relative to the expression of the housekeeping gene.

mice = assay: Serum cytokines (IL-12 p40, IL-6, TNF-α) after subcutaneous injection in mice; type: in vivo; conditions: 20 ug subcutaneous, blood 2 hours later
Protocol: Blood was collected 2 hours later. For the LPS positive control group, mice were injected intraperitoneally with a 200 ul volume, and blood was collected 1.5 hours later (i.e., at the peak of LPS induced TNF-α activity). The blood was clotted and the serum was prepared and stored at −80° C. until assayed. Serum cytokines were assayed using Biosource cytoscreen kits for TNF-α and Pharmingen antibody pairs for mIL-6 and mIL-12. All samples were assayed in duplicate.

[2] = system: hepatitis B surface antigen (HBsAg); conditions: in vivo
CD19+ B cells = assay: Human B cell proliferation assay (3H-thymidine incorporation); conditions: 2 μg/ml; for cpm1 / cpm2 / cpm3 / mean cpm / mean of both: B cells
[3] = donor 28066, 20 ug/ml, 24 h, + PLGA = premixed with 100 μg/ml cPLGA
[4] = donor 28067, 20 ug/ml, 24 h, + PLGA = premixed with 100 μg/ml cPLGA
[5] = donor 28068, 20 ug/ml, 24 h, + PLGA = premixed with 100 μg/ml cPLGA
[6] = mean of Donors 1-2, 20 μg/ml, 24 h
[7] = mean of Donors 9-12, 20 μg/ml, 24 h
[8] = mean of donors 28065-28068, 20 ug/ml, 24 h, + PLGA = premixed with 100 μg/ml cPLGA
[9] = mean of donors 28185-28188, Table 15

OCCCCCCCCCCCCO [1,12-dihydroxydodecane]
solubility [1]: < 5000 µg/mL

5′-TCGTCGA-3′- C3-5′-ACGTTCG-3′-C3-5′-AGATGAT-3′ [Compound C-9]
IFN-α (pg/ml) Donor 1 (human PBMCs; Donor 1, 20 μg/ml, 24 h): 142 pg/mL
IFN-γ (pg/ml) Donor 1 (human PBMCs; Donor 1, 20 μg/ml, 24 h): 2157 pg/mL
IFN-α (pg/ml) Donor 2 (human PBMCs; Donor 2, 20 μg/ml, 24 h): 0 pg/mL
IFN-γ (pg/ml) Donor 2 (human PBMCs; Donor 2, 20 μg/ml, 24 h): 171 pg/mL
IFN-α Donor 9 (human PBMCs; Donor 9, 20 μg/ml, 24 h): 8
IFN-γ Donor 9 (human PBMCs; Donor 9, 20 μg/ml, 24 h): 134
IFN-α Donor 10 (human PBMCs; Donor 10, 20 μg/ml, 24 h): 10
IFN-γ Donor 10 (human PBMCs; Donor 10, 20 μg/ml, 24 h): 7
IFN-α Donor 11 (human PBMCs; Donor 11, 20 μg/ml, 24 h): 1
IFN-γ Donor 11 (human PBMCs; Donor 11, 20 μg/ml, 24 h): 56
IFN-α Donor 12 (human PBMCs; Donor 12, 20 μg/ml, 24 h): 15
IFN-γ Donor 12 (human PBMCs; Donor 12, 20 μg/ml, 24 h): 30
IFN-α (human PBMCs; Table 9, donor 28089): 10 pg/mL
IFN-γ (human PBMCs; Table 9, donor 28089): 12 pg/mL
IFN-α (human PBMCs; Table 9, donor 28090): 67 pg/mL
IFN-γ (human PBMCs; Table 9, donor 28090): 7 pg/mL
IFN-α mean (human PBMCs; Table 9, mean of donors): 39 pg/mL
IFN-γ mean (human PBMCs; Table 9, mean of donors): 10 pg/mL
IFN-α (human PBMCs; Table 11, donor 28042): 39 pg/mL
IFN-γ (human PBMCs; Table 11, donor 28042): 691 pg/mL
IFN-α (human PBMCs; Table 11, donor 28043): 0 pg/mL
IFN-γ (human PBMCs; Table 11, donor 28043): 268 pg/mL
IFN-α (human PBMCs; Table 11, donor 28044): 11 pg/mL
IFN-γ (human PBMCs; Table 11, donor 28044): 590 pg/mL
IFN-α (human PBMCs; Table 11, donor 28045): 64 pg/mL
IFN-γ (human PBMCs; Table 11, donor 28045): 1306 pg/mL
IFN-α mean (human PBMCs; Table 11, mean of donors): 29 pg/mL
IFN-γ mean (human PBMCs; Table 11, mean of donors): 714 pg/mL
IFN-α (human PBMCs; Table 13, donor 28156): 26 pg/mL
IFN-γ (human PBMCs; Table 13, donor 28156): 1162 pg/mL
IFN-α (human PBMCs; Table 13, donor 28157): 142 pg/mL
IFN-γ (human PBMCs; Table 13, donor 28157): 729 pg/mL
IFN-α (human PBMCs; Table 13, donor 28158): 78 pg/mL
IFN-γ (human PBMCs; Table 13, donor 28158): 192 pg/mL
IFN-α (human PBMCs; Table 13, donor 28159): 20 pg/mL
IFN-γ (human PBMCs; Table 13, donor 28159): 329 pg/mL
IFN-α mean (human PBMCs; Table 13, mean of donors): 67 pg/mL
IFN-γ mean (human PBMCs; Table 13, mean of donors): 603 pg/mL
IFN-γ (pg/ml) 28065 (human PBMCs; donor 28065 (high background), 20 ug/ml, 24 h, + PLGA = premixed with 100 μg/ml cPLGA, 1000 = outside assay limits): 1000 pg/mL
IFN-α (pg/ml) 28065 (human PBMCs; donor 28065, 20 ug/ml, 24 h, + PLGA = premixed with 100 μg/ml cPLGA): 13 pg/mL
IFN-α (pg/ml) 28066 (human PBMCs; [3]): 0 pg/mL
IFN-γ (pg/ml) 28066 (human PBMCs; [3]): 8 pg/mL
IFN-α (pg/ml) 28067 (human PBMCs; [4]): 22 pg/mL
IFN-γ (pg/ml) 28067 (human PBMCs; [4]): 57 pg/mL
IFN-α (pg/ml) 28068 (human PBMCs; [5]): 64 pg/mL
IFN-γ (pg/ml) 28068 (human PBMCs; [5]): 510 pg/mL
IFN-a (human PBMCs; donor 28185, Table 15): 25 pg/mL
IFN-g (human PBMCs; donor 28185, Table 15): 189 pg/mL
IFN-a (human PBMCs; donor 28186, Table 15): 16 pg/mL
IFN-g (human PBMCs; donor 28186, Table 15): 24 pg/mL
IFN-a (human PBMCs; donor 28187, Table 15): 4 pg/mL
IFN-g (human PBMCs; donor 28187, Table 15): 95 pg/mL
IFN-a (human PBMCs; donor 28188, Table 15): 146 pg/mL
IFN-g (human PBMCs; donor 28188, Table 15): 11 pg/mL
IFN-α (pg/ml) mean (human PBMCs; [6]): 71 pg/mL
IFN-γ (pg/ml) mean (human PBMCs; [6]): 1164 pg/mL
IFN-α mean (human PBMCs; [7]): 8
IFN-γ mean (human PBMCs; [7]): 56
IFN-α (pg/ml) mean (human PBMCs; [8]): 25 pg/mL
IFN-γ (pg/ml) mean (human PBMCs; [8]): 394 pg/mL
IFN-a (pg/ml) mean (human PBMCs; [9]): 48 pg/mL
IFN-g (pg/ml) mean (human PBMCs; [9]): 80 pg/mL
IFN-a (pg/ml) ×2 (human PBMCs; mean ×2, Table 15): 95 pg/mL
IFN-g (pg/ml) ×4 (human PBMCs; mean ×4, Table 15): 319 pg/mL
cpm1 (PBMCs; Donor 146, 2 μg/ml): 55348 cpm
cpm2 (PBMCs; Donor 146, 2 μg/ml): 24857 cpm
cpm3 (PBMCs; Donor 146, 2 μg/ml): 39953 cpm
mean cpm (PBMCs; Donor 146 mean): 40053 cpm
cpm1 (PBMCs; Donor 147, 2 μg/ml): 88106 cpm
cpm2 (PBMCs; Donor 147, 2 μg/ml): 65413 cpm
cpm3 (PBMCs; Donor 147, 2 μg/ml): 90665 cpm
mean cpm (PBMCs; Donor 147 mean): 81395 cpm
mean of both (PBMCs; mean of Donors 146 and 147, 2 μg/ml): 60724 cpm
mRNA expression of IFN-alpha in the lung, in words (mouse lung): considerably higher mRNA expression of IFN-alpha
mRNA expression of immune-associated genes in the lung, in words (mouse lung; vs P-7 treated mice): potently induce the expression of a variety of genes
induction of serum IL-12 p40, IL-6 and TNF-α, in words (mice): induced IL-12 p40, IL-6, and TNF-α
Anti-HBsAg (mIU/ml) post-first, Mean [2]: 68 mIU/ml
Anti-HBsAg (mIU/ml) post-second, Mean [2]: 4135** mIU/ml
B cell proliferation, in words (CD19+ B cells; 48 h plus 8 h 3H-thymidine pulse): cause B cells to proliferate
cpm1 (CD19+ B cells; Donor 146, Experiment A): 35365 cpm
cpm2 (CD19+ B cells; Donor 146, Experiment A): 42705 cpm
cpm3 (CD19+ B cells; Donor 146, Experiment A): 45231 cpm
mean cpm (CD19+ B cells; Donor 146 mean, Experiment A): 41100 cpm
cpm1 (CD19+ B cells; Donor 147, Experiment A): 55543 cpm
cpm2 (CD19+ B cells; Donor 147, Experiment A): 49035 cpm
cpm3 (CD19+ B cells; Donor 147, Experiment A): 44985 cpm
mean cpm (CD19+ B cells; Donor 147 mean, Experiment A): 49854 cpm
cpm1 (CD19+ B cells; donor 121, Experiment B): 21938 cpm
cpm2 (CD19+ B cells; donor 121, Experiment B): 35400 cpm
cpm3 (CD19+ B cells; donor 121, Experiment B): 23877 cpm
mean cpm (CD19+ B cells; donor 121 mean, Experiment B): 27072 cpm
cpm1 (CD19+ B cells; donor 194, Experiment B): 13660 cpm
cpm2 (CD19+ B cells; donor 194, Experiment B): 16717 cpm
cpm3 (CD19+ B cells; donor 194, Experiment B): 17866 cpm
mean cpm (CD19+ B cells; donor 194 mean, Experiment B): 16081 cpm
mean of both (CD19+ B cells; mean of Donors 146 and 147, Experiment A): 45477 cpm
mean of both (CD19+ B cells; mean of donors 121 and 194, Experiment B): 21576 cpm
